{
  "source": "patent US20080044491A1",
  "about": "“METAL-CONTAINING FORMULATIONS AND METHODS OF USE” (priority 2006, published 2008)",
  "key": {"[1]": {"test": "Compatibility of nanocrystalline silver with excipients", "format": "physicochemical", "conditions": "10% aqueous solution of excipient with nanocrystalline silver, glass vial, 40° C. overnight"}, "[2]": {"test_system": "Enterobacter cloacae", "test": "MIC assay (microdilution)", "format": "cell-based", "conditions": "Ent. cloacae"}, "[3]": {"test_system": "Escherichia coli", "test": "MIC assay (microdilution)", "format": "cell-based"}, "[4]": {"test_system": "MMP-9", "test": "Gelatin zymography of colonic homogenates", "format": "in vivo, rat", "conditions": "oral 100 mg/kg", "method": "Gelatin Zymography: Activities of MMP-9 and MMP-2 in colonic tissue homogenates were determined by gelatin zymography as described previously. Briefly, colonic homogenates were mixed with equal volume of zymograph sample buffer. Samples were loaded on a 10% SDS-polyacrylamide gel containing 0.1% gelatin. After electrophoresis, the SDS was removed from the gel by incubation with renaturing buffer containing 2% Triton-X-100 for 1 hour. The gel was incubated overnight in developing buffer containing 50 mM Tris-HCl, pH 7.8, 5 mM CaCl2, 0.2 M NaCl, 0.02% Brij-35. The gel was subsequently stained with Coumassie blue for 30 minutes and destained with destaining solution containing 8% acetic acid and 4% methanol. Gelatinolytic activity was determined as transparent bands against the blue background of stained gelatin. MMPs were identified by their molecular weight compared with the standards. Absence of a transparent band on the gel was evidenced as no MMP-9 or MMP-2 activity of the sample tested."}, "[5]": {"test_system": "DNBS-induced colitis", "test": "DNBS-induced colitis in rat: total IBD score", "format": "in vivo"}, "[6]": {"test_system": "TNF-α", "test": "Immunohistochemical staining of colonic tissue", "format": "in vivo, rat", "conditions": "DNBS colitis, five days oral treatment", "method": "(§1) Immunohistochemistry: A Universal Streptavidin/Biotin detection system (Thermo Shandon, Pittsburgh, Pa.) was used for immunohistochemical staining of formalin fixed, paraffin embedded biopsies of the colon. After dewaxing, and hydration, sections were treated with protein blocking agent to reduce non-specific binding of antibodies. The tissues were then incubated with rabbit anti-rat TNF-α, or mouse anti-rat IL-12 p70 antibodies (Biosource International, Inc, Camarillo, Calif.); rabbit anti-rat IL-1β (Serotec, Raleigh, N.C.) or rabbit anti-rat MMP-9 antibody (Chemicon International, Telecuma, Calif.) in 1% bovine serum albumin in phosphate buffered saline. Incubations with secondary antibodies, streptavidin/biotin, and chromogenic detection of peroxidase were performed according to the manufacturer's protocol. Sections were counterstained, dehydrated, mounted and examined. The intensity of the immuno-peroxidase staining was graded as described previously. Expression of cytokines was graded as: 0, no staining in the section; 1, less than 25% of the section; 2, 25-50% of the section; 3, 50-75% of the section; 4, >75% of the section with significant staining."}, "[7]": {"test_system": "MMP-9", "test": "Immunohistochemical staining of colonic tissue", "format": "in vivo, rat", "conditions": "vs placebo and no treatment (FIG. 19)", "method": "as §1"}, "[8]": {"test_system": "IL-1β", "test": "Immunohistochemical staining of colonic tissue", "format": "in vivo, rat", "conditions": "DNBS colitis, five days oral treatment", "method": "as §1"}, "[9]": {"test_system": "DNBS-induced colitis", "test": "DNBS-induced colitis in rat: histopathological inflammation score of colon", "format": "in vivo", "conditions": "oral, 100 mg/kg, five days", "method": "Histopathology: A piece of colonic tissue at 2-4 cm proximal to the anus was excised and fixed in 10% formalin and the sections were stained with hematoxylin and eosin. The remaining length of the colonic tissues was stored at −80° C. for subsequent biochemical assays. The histology slides were examined by a veterinary pathologist who was blinded to the treatment groups. The extent of microscopic mucosal damage of the colon was scored on scale of 0-5 as described with slight modification: 0=normal histological appearance; 1=histological damage limited to surface epithelium, mild infiltration of the submucosa; 2=focal ulceration and cell disruption limited to mucosa, abnormal appearance of colonic wall, mild infiltration of inflammatory cells; 3=focal, transmural inflammation and ulceration, with mild to moderate infiltration of inflammatory cells; 4=Extensive transmural ulceration and inflammation bordered by areas of normal mucosa, moderate infiltration of inflammatory cells; 5=extensive transmural ulceration and inflammation involving entire section from epithelium to serosa, severe infiltration of inflammatory cells.\nStatistical Analysis: The results are expressed as the mean ±SE. […] The data were calculated with the aid of Instat Graph Pad Software. […]"}, "[10]": {"test": "DNBS-induced colitis in rat: body weight change", "format": "in vivo", "conditions": "rats with DNBS-induced colitis (FIGS. 10, 11)", "from_the_text": "Animals: Male Sprague-Dawley rats, weighing approximately 250-300 gm were purchased from Charles River Laboratories (Raleigh, N.C.). The animals were housed under standard conditions with free access to food and water. They were acclimatized for 2-3 days before commencing the experiments. The study protocol was approved by the Institutional Animal Care and Use Committees (IACUC).\nInduction of ulcerative colitis: Colitis was produced according to published methods. Animals were anesthetized by intraperitoneal injection of 75 mg/kg of ketamine plus 5 mg/kg of xylazine. A single intracolonic injection of 120 mg/ml of dinitrobenzenesulfonic acid (DNBS) (Sigma Chemicals, St. Louis, Mo.) in 250 micro liter of 50% ethanol was administered through a Tom Cat catheter (Kendall Sovereign, Mansfield, Mass.) with a closed-end tip, connected to a 1 ml syringe and placed 7 cm proximal to the anus. Lubricant was applied to the tip of the catheter before injection, to protect from mucosal injury. After instillation of DNBS, 0.5 ml of air was insufflated and the catheter was removed. […]\nMacroscopic Observations: Body weight was recorded daily and the animals were examined for their physical appearance. […] After scoring of the consistency of the stool the colon was rinsed in normal saline, examined and thickness of the colonic wall and number and size of ulcers were scored. […]"}, "[11]": {"test_system": "Streptococcus pyogenes", "test": "MIC assay (microdilution)", "format": "cell-based", "conditions": "lactate solutions, nanocrystalline silver = range for 12 samples"}, "[12]": {"test_system": "Streptococcus pneumoniae", "test": "MIC assay (microdilution)", "format": "cell-based", "conditions": "lactate solutions, nanocrystalline silver = range for 12 samples"}, "[13]": {"test_system": "Pseudomonas aeruginosa", "test": "MIC assay (microdilution)", "format": "cell-based", "conditions": "lactate solutions, nanocrystalline silver = range for 12 samples"}, "[14]": {"test_system": "Staphylococcus epidermidis", "test": "MIC assay (microdilution)", "format": "cell-based", "conditions": "S. epiderm (ATCC); lactate solutions; nanocrystalline silver = range for 12 samples"}, "[15]": {"test_system": "Mycobacterium tuberculosis H37Ra (ATCC 25177)", "format": "cell-based"}, "[16]": {"test_system": "Staphylococcus aureus", "test": "MIC assay (microdilution)", "format": "cell-based", "conditions": "lactate solutions, nanocrystalline silver = range for 12 samples"}},
  "note": "Entries after “also recorded” stand apart in the source; their conditions may differ.",
  "data": [
    {"compound": "OCc1ccccc1", "note": "[Benzyl alcohol]", "values": [
      {"measurement": "Reaction with nanocrystalline silver", "setting": "[1]", "result": "Grey/slightly red"}
    ]},
    {"compound": "CCCCCCCCCCCCCCCCCCO", "note": "[Cetearyl alcohol]", "values": [
      {"measurement": "Reaction with nanocrystalline silver", "setting": "[1]", "result": "Light brown/green/black"}
    ]},
    {"compound": "CCCCCCCCCCCCCCCCO", "note": "[Cetyl alcohol]", "values": [
      {"measurement": "Reaction with nanocrystalline silver", "setting": "[1]", "result": "Grey color - no discoloration"}
    ]},
    {"compound": "CCCCCCCCCCCCCCCCCC(=O)OCC(O)CO", "note": "(stereo not drawn) [Glycerol monostearate]", "values": [
      {"measurement": "Reaction with nanocrystalline silver", "setting": "[1]", "result": "Brown discoloration"}
    ]},
    {"compound": "CCCCCCCCCCCCCC(=O)OC(C)C", "note": "[Isopropyl myristate]", "values": [
      {"measurement": "Reaction with nanocrystalline silver", "setting": "[1]", "result": "Grey color - no discoloration"}
    ]},
    {"compound": "COC(=O)c1ccc(O)cc1", "note": "[Methylparaben]", "values": [
      {"measurement": "Reaction with nanocrystalline silver", "setting": "[1]", "result": "Brown discoloration"}
    ]},
    {"compound": "CC(O)CO", "note": "(stereo not drawn) [Propylene glycol]", "values": [
      {"measurement": "Reaction with nanocrystalline silver", "setting": "[1]", "result": "Discoloration"}
    ]},
    {"compound": "CCCOC(=O)c1ccc(O)cc1", "note": "[Propylparaben]", "values": [
      {"measurement": "Reaction with nanocrystalline silver", "setting": "[1]", "result": "Green discoloration"}
    ]},
    {"compound": "OO", "note": "[Sample H2O2, hydrogen peroxide]", "values": [
      {"measurement": "MIC", "setting": "[2]; Catalase/SOD +", "result": ">500", "unit": "mg/L"},
      {"measurement": "MIC", "setting": "[2]; Catalase/SOD −", "result": 63, "unit": "mg/L"},
      {"measurement": "Reaction with nanocrystalline silver", "setting": "[1]", "result": "Brown discoloration after drying"},
      {"measurement": "MIC", "setting": "[3]; E. coli, Catalase/SOD +", "result": ">500", "unit": "mg/L"},
      {"measurement": "MIC", "setting": "[3]; E. coli, Catalase/SOD −", "result": 31, "unit": "mg/L"}
    ]},
    {"compound": "O=C([O-])c1ccccc1.[Na+]", "note": "[Sodium benzoate]", "values": [
      {"measurement": "Reaction with nanocrystalline silver", "setting": "[1]", "result": "White precipitate"}
    ]},
    {"compound": "CCCCCCCCCCCCCCCCCC(=O)O", "note": "[Stearic acid]", "values": [
      {"measurement": "Reaction with nanocrystalline silver", "setting": "[1]", "result": "Grey color - no discoloration"}
    ]},
    {"compound": "CCOCCOCCO", "note": "[Transcutol, diethylene glycol monoethyl ether]", "values": [
      {"measurement": "Reaction with nanocrystalline silver", "setting": "[1]", "result": "Grey color - no discoloration"}
    ]},
    {"compound": "O=C(O)c1cc(/N=N/c2ccc(S(=O)(=O)Nc3ccccn3)cc2)ccc1O", "note": "[sulfasalazine, salicylazosulfapyridine]", "values": [
      {"measurement": "MMP-9 activity (gelatin zymography)", "setting": "[4]", "result": "reduced MMP-9 activity"},
      {"measurement": "total IBD score vs placebo", "setting": "[5]; intracolonic, 100 mg/kg, five days", "result": "Significant reduction; also recorded: significantly reduced total IBD score"},
      {"measurement": "total IBD score vs placebo", "setting": "[5]; intracolonic, 100 mg/kg, five days, listed as Sulfasalazine", "result": "significantly reduced total IBD score"},
      {"measurement": "total IBD score", "setting": "[5]; oral, 100 mg/kg, five days", "result": "significant reduction"},
      {"measurement": "expression of TNF-α (immunohistochemical staining)", "setting": "[6]", "result": "significantly reduced the expression"},
      {"measurement": "expression of MMP-9 (immunohistochemical staining)", "setting": "[7]", "result": "significantly reduced the expression"},
      {"measurement": "expression of IL-1β (immunohistochemical staining)", "setting": "[8]", "result": "significantly reduced the expression"},
      {"measurement": "histopathological inflammation vs placebo and untreated", "setting": "[9]", "result": "significantly reduced"},
      {"measurement": "body weight change", "setting": "[10]", "result": "started gaining body weight after one day of treatment"}
    ]},
    {"compound": "Sodium parabens", "values": [
      {"measurement": "Reaction with nanocrystalline silver", "setting": "[1]", "result": "Precipitation"}
    ]},
    {"compound": "silver oxide [Ag2O]", "values": [
      {"measurement": "MIC", "setting": "[11]; S. pyog (clin. 303)", "result": 2, "unit": "mg/L"},
      {"measurement": "MIC", "setting": "[11]; S. pyog (clin. 304)", "result": 3, "unit": "mg/L"},
      {"measurement": "MIC", "setting": "[12]; S. pneumo (clin 314)", "result": 3, "unit": "mg/L"},
      {"measurement": "MIC", "setting": "[12]; S. pneumo (clin 315)", "result": 2, "unit": "mg/L"},
      {"measurement": "total IBD score vs placebo", "setting": "[5]; intracolonic 250 μl once a day for five days, 0.25% homogenized", "result": "unable to show significant reduction"},
      {"measurement": "total IBD score vs placebo", "setting": "[5]; intracolonic 250 μl once a day for five days, 0.25% sonicated nanodispersion", "result": "but not 0.25% sonicated"},
      {"measurement": "total IBD score vs placebo", "setting": "[5]; intracolonic 250 μl once a day for five days, 0.5% homogenized", "result": "unable to show significant reduction"},
      {"measurement": "total IBD score vs placebo", "setting": "[5]; intracolonic 250 μl once a day for five days, 0.5% sonicated nanodispersion", "result": "significantly reduced the total IBD score"},
      {"measurement": "total IBD score vs placebo", "setting": "[5]; intracolonic 250 μl once a day for five days, 1.5% sonicated nanodispersion", "result": "significantly reduced the total IBD score"},
      {"measurement": "MIC", "setting": "[13]; P. aerug (ATCC)", "result": 0.8, "unit": "mg/L"},
      {"measurement": "MIC", "setting": "[13]; P. aerug. (clin.)", "result": 2, "unit": "mg/L"},
      {"measurement": "MIC", "setting": "[14]", "result": 2, "unit": "mg/L"},
      {"measurement": "MIC", "setting": "[3]; E. coli (ATCC), lactate solutions, nanocrystalline silver = range for 12 samples", "result": 0.8, "unit": "mg/L"},
      {"measurement": "minimum inhibitory concentration (MIC)", "setting": "[15]", "result": 2.5, "unit": "μg/ml silver"},
      {"measurement": "MIC", "setting": "[16]; S. aureus (ATCC)", "result": 3, "unit": "mg/L"},
      {"measurement": "MIC", "setting": "[16]; S. aureus (clin.)", "result": 6, "unit": "mg/L"}
    ]}
  ]
}
